Where two headings read alike, the source gives them in different places. Ends that are not written are not given here. Peptide text beside a SMILES is read from it. * marks the point of attachment. RhodamineB = CCN(CC)c1ccc2c(-c3ccccc3C(=O)*)c3ccc(=[N+](CC)CC)cc-3oc2c1; X1 = CC[N+]1=C(C=CC=C2N(CCCCCC(=O)*)c3ccccc3C2(C)C)C(C)(C)c2ccccc21; 5FAM = O=C1OC2(c3ccc(O)cc3Oc3cc(O)ccc32)c2ccc(C(=O)*)cc21
Tests used:
[1] = test system: HBEC-5i cells (in vitro BBB model); experiment: In vitro BBB translocation across HBEC-5i transwell monolayer; type: in vitro ADME, human; settings: HBEC-5i monolayer on PET transwell 1.0 μm pores, apical to basolateral, 10 μM, 24 h, DMEM:F12 without phenol red, mean ± SD, triplicates of three independent experiments
Source text: HBEC-5i cells were allowed to grow until confluence in a gelatin-coated T-flask. Then, cells were carefully harvested with trypsin-EDTA (Gibco/Thermo Fisher, United States) and seeded 8,000 cells/well to 0.1% gelatin solution coated tissue culture inserts [transparent polyester (PET) membrane with 1.0 μm pores] for 24-well plates (BD Falcon, United States). During 8 days, the medium was changed every 2 days. After 8 days, cells were washed two times with 1× PBS and once with DMEM:F12 medium without phenol red (Gibco/Thermo Fisher, United States). Then, peptides diluted in DMEM:F12 medium without phenol red to a final concentration of 10 μM were added to the apical side of the in vitro BBB model (Figure 1). Experiments were performed on different days using independently grown cell cultures.
FIGURE 1 Scheme of an in vitro BBB transwell membrane system. Human brain endothelial cells (HBEC-5i) are cultured as monolayer on the apical side of a polyester (PET) transwell insert (1.0 μm pore size). Then, 10 μM of peptides are added to the apical side, and the translocation measured as the amount detected on the basolateral side.
The translocation of peptides labeled with different fluorophores was determined by fluorescence emission. After 24 h incubation, samples from the apical and basolateral side were collected and analyzed. Fluorescence was measured using the infinite F200 TECAN plate reader. The percentage (%) of translocation was calculated using the following equation:
(3) Translocation(%)=(Fi-Fcells/Fpeptide-FMedium)×100
Fi is the fluorescence intensity recovered, Fcells is the fluorescence intensity recovered from cells without peptide incubation, Fpeptide is the fluorescence intensity of total peptide initially added to the transwell apical side, and FMedium is the fluorescence intensity of the medium.
The translocation of unlabeled peptides was determined by the calculation of the respective area under the curve (AUC) in the reversed phase HPLC chromatograms. After 24 h incubation, samples from the apical and basolateral side were collected and analyzed by HPLC on a PerkinElmer Series 200 pump coupled to a PerkinElmer Series 200 UV/Vis Detector on a Luca C18 column (4.6 mm × 50 mm, 3 μm, Phenomenex, United States), eluting with linear gradients of HCOOH/MeCN (0.1%, v/v) into HCOOH/H2O (0.1%, v/v) over 15 min at 1 mL/min. UV detection was λ = 220 nm. The percentage (%) of translocation was calculated using the following equation:
(4) Translocation(%)=(AUCi/AUCpeptide)×100
AUCi is the AUC of peptide recovered and AUCpeptide is the AUC of total peptide initially added to the transwell apical side.

HBEC-5i cells = experiment: CellTiter-Blue cell viability assay, HBEC-5i; type: cell-based, human; settings: peptide 0.01-100 μM, mean ± SD, triplicates of three independent experiments; for Cytotoxicity HBEC-5i cells IC10: Table 1, concentration causing 10% cell death; for Cytotoxicity HBEC-5i cells IC10 / Cytotoxicity HBEC-5i cells IC90: 24 h; for Cytotoxicity HBEC-5i cells IC90: Table 1, concentration causing 90% cell death; for IC50: Table 1, 24 h, read-out: Cytotoxicity HBEC-5i cells IC50
Procedure: (§1) Peptides cytotoxicity against both HBEC-5i and MDA-MB-231 cells was determined using CellTiter-Blue® Cell Viability Assay, according to the manufacturer’s instructions. The assay is based on the ability of viable cells to reduce resazurin into resorufin, a highly fluorescent metabolite. […] Therefore, using this methodology is possible to distinguish between metabolic and non-metabolic cells and indirectly determine the cytotoxicity of peptides. Briefly, HBEC-5i and MDA-MB-231 cells were carefully detached from T-flasks, as described previously, and seeded 15,000/100 and 10,000/100 μL, respectively, in 96-well plates (Corning, United States) and incubated for 24 h. After medium removal, cells were washed two times with 1× PBS and 100 μL of previously diluted peptides (range between 0.01 and 100 μM) in either DMEM or DMEM:F12 medium were added to MDA-MB-231 or HBEC-5i cells, respectively. After 24 h incubation, cells were washed two times with 1× PBS, and 20 μL of CellTiter-Blue® Reagent (diluted in 100 μL of medium) was added to each well and incubated for 3 h in a humidified atmosphere of 5% CO2 at 37°C. The fluorescence intensity was measured at λ with an excitation of 560 nm and maximum emission at 590 nm using the infinite F200 TECAN plate reader. Medium and 1% Triton X-100-containing medium were used as positive controls (100% cell viability) and negative controls (0% cell viability), respectively. Cell viability (%) was determined using the following equation:
(§2) (7) CellViability=FP-FNC/FPC-FNC×100
(§3) Fp is the fluorescence intensity of peptide-treated cells, FNC is the fluorescence intensity for negative controls, and FPC is the fluorescence intensity for positive controls.
(§4) Experiments were performed on different days using independently grown cell cultures.
(§5) FIGURE 4 In vitro cytotoxicity unlabeled- and labeled-peptides. (A,B) Cytotoxicity against HBEC-5i cells. (C,D) Cytotoxicity against MDA-MB-231 cells. 1.5 × 10^4 and 1.0 × 10^4 cells of HBEC-5i and MDA-MB-231 cells, respectively, were incubated with various concentrations of peptides (range from 0.01 to 100 μM). The percentage of viability was determined using CellTiter® Blue reagent assay. […] Error bars, S.D.

[2] = CellTiter-Blue cell viability assay, HBEC-5i; type: cell-based, human; settings: human, HBEC-5i cells, Table 1, peptide 0.01-100 μM, mean ± SD, triplicates of three independent experiments, read-out: Cytotoxicity HBEC-5i cells IC50
Procedure: as §1, §2, §3, §4, §5

human RBCs [3] = settings: pH 7.4
Procedure: (§6) Fresh human blood was collected in EDTA tubes and centrifuged at 1,000 × g for 10 min at 4°C. The supernatant was discharged, and the pellet containing RBCs was washed three times with 1× PBS (137 mM NaCl, 2.7 mM KCl, 10 mM Na2HPO4, and 1.8 mM KH2PO4, pH 7.4) and resuspended in 1× PBS to obtain a 2.0% (v/v) suspension. Then, RBCs were added to centrifuge tubes containing two-fold serially diluted peptides to a final concentration ranging from 0.01 to 100 μM. The suspension was incubated for 24 h at 37°C with gentle stirring. After that, samples were centrifuged for 2 min at 1,000 × g. Supernatants were transferred to 96-well plates, and the hemoglobin released measured by absorbance at 570 nm in an Infinite F200 TECAN plate reader. 1× PBS with no peptides and Triton X-100 at 1 and 4% (v/v) were used as negative and positive controls, respectively. Hemolytic activity (%) was determined using the following equation:
(§7) (2) Hemolyticactivity(%)=AbsPT-AbsNC/AbsPC-AbsNC
(§8) where, AbsPT is the absorbance of treated samples, AbsNC is the absorbance from negative control, and AbsPC absorbance from positive control.
(§9) HC50 values were determined using the GraphPad Prism 7.0 software using a log(inhibitor) vs. normalized response. Experiments were performed on different days using independent blood donors.
(§10) (range from 0.01 to 100 μM). The percentage of hemolysis was determined by the absorbance of hemoglobin released into the supernatant. Melittin was included as a control peptide with hemolytic properties. The values were obtained from triplicates of three independent experiments. Error bars, S.D.

human RBCs [4] = experiment: Hemolytic activity on human red blood cells; settings: 37°C; for Hemolytic activity HC10 / Hemolytic activity HC50 / Hemolytic activity HC90: Table 1, human RBCs in 1x PBS pH 7.4, 24 h, peptide 0.01-100 μM, mean ± SD, triplicates of three independent experiments; for Hemolytic activity HC10: concentration causing 10% hemolysis, hemoglobin absorbance 570 nm; for Hemolytic activity HC50: concentration causing 50% hemolysis; for Hemolytic activity HC50 / Hemolytic activity HC90: absorbance 570 nm; for Hemolytic activity HC90: concentration causing 90% hemolysis
Procedure: as §6, §7, §8, §9, §10

[5] = CellTiter-Blue cell viability assay, MDA-MB-231; type: cell-based, human; settings: human, MDA-MB-231 cells, mean ± SD, triplicates of three independent experiments; for IC90 at 24 h: Table 1, concentration causing 90% cell death, peptide 0.01-100 μM, read-out: Cytotoxicity MDA-MB-231 cells IC90; for IC50 at 24 h: Table 1, peptide 0.01-100 μM, read-out: Cytotoxicity MDA-MB-231 cells IC50
Procedure: as §1, §2, §3, §4, §5

MDA-MB-231 cells = experiment: CellTiter-Blue cell viability assay, MDA-MB-231; type: cell-based, human; settings: Table 1, concentration causing 10% cell death, 24 h, peptide 0.01-100 μM, mean ± SD, triplicates of three independent experiments
Procedure: as §1, §2, §3, §4, §5

[6] = labeled peptide, quantified by fluorescence emission

Compound	Translocation (%) [1, 6]	Cytotoxicity HBEC-5i cells IC10 (HBEC-5i cells)	CC50 at 24 h [2]	Hemolytic activity HC10 (human RBCs [3])	Hemolytic activity HC50 (human RBCs [3])	Hemolytic activity HC90 (human RBCs [3])	Hemolytic activity HC10 (human RBCs [4])	Hemolytic activity HC50 (human RBCs [4])	Hemolytic activity HC90 (human RBCs [4])	Cytotoxicity HBEC-5i cells IC90 (HBEC-5i cells)	Translocation (%) ([1]; unlabeled peptide, quantified by HPLC (AUC, UV 220 nm))	Hemolysis of RBCs, in words (human RBCs [4]; human RBCs, up to 100 μM, 24 h)	IC90 at 24 h [5]	IC50 at 24 h [5]	Cytotoxicity MDA-MB-231 cells IC10 (MDA-MB-231 cells)	IC50 (HBEC-5i cells)
CC[C@H](C)[C@H](NC(=O)CNC(=O)[C@H](C)NC(=O)c1ccc2c(c1)C(=O)OC21c2ccc(O)cc2Oc2cc(O)ccc21)C(=O)N[C@@H](CC(C)C)C(=O)N[C@@H](CCCCN)C(=O)N[C@@H](CCCNC(=N)N)C(=O)N[C@@H](Cc1c[nH]c2ccccc12)C(N)=O [CF-PepH3] (5FAM-AGILKRW-NH2)	57.09 ± 2.43%	>200 µM	> 200 µM	>200 µM	>200 µM	>200 µM										
C[C@@H](O)[C@H](NC(=O)CNC(=O)[C@H](CO)NC(=O)c1ccc2c(c1)C(=O)OC21c2ccc(O)cc2Oc2cc(O)ccc21)C(=O)N[C@@H](CCC(N)=O)C(=O)N[C@@H](CCC(=O)O)C(=O)N[C@@H](CCC(=O)O)C(=O)N[C@@H](Cc1ccc(O)cc1)C(N)=O [CF-PepNeg] (5FAM-SGTQEEY-NH2)	56.01 ± 3.49%	>200 µM	> 200 µM													
CC[N+]1=C(C=CC=C2N(CCCCCC(=O)N[C@@H](CO)C(=O)NCC(=O)N[C@H](C(=O)N[C@@H](CCC(N)=O)C(=O)N[C@@H](CCC(=O)O)C(=O)N[C@@H](CCC(=O)O)C(=O)N[C@@H](Cc3ccc(O)cc3)C(N)=O)[C@@H](C)O)c3ccccc3C2(C)C)C(C)(C)c2ccccc21 [Q570-PepNeg] (X1-SGTQEEY-NH2)	48.89 ± 3.05%	>200 µM	> 200 µM													
CCN(CC)c1ccc2c(-c3ccccc3C(=O)N[C@@H](CO)C(=O)NCC(=O)N[C@H](C(=O)N[C@@H](CCC(N)=O)C(=O)N[C@@H](CCC(=O)O)C(=O)N[C@@H](CCC(=O)O)C(=O)N[C@@H](Cc3ccc(O)cc3)C(N)=O)[C@@H](C)O)c3ccc(=[N+](CC)CC)cc-3oc2c1 [RhB-PepNeg] (RhodamineB-SGTQEEY-NH2)	51.57 ± 2.43%	>200 µM	> 200 µM				>200 µM	>200 µM	>200 µM	>200 µM						
AGILKRW-NH2 [PepH3]		>200 µM	> 200 µM				>200 µM	>200 µM	>200 µM	>200 µM	55.15 ± 3.16%	non-hemolytic				
KKRLKKIFKKPMVIGVTIPF-NH2 [Ctn[15-34]]							>200 µM	>200 µM	>200 µM				> 200 µM	> 200 µM	4.76 ± 1.56 µM	
TF3-AGILKRW-amide [TF3-PepH3, PepH3 labeled at the N-terminus with tide fluor 3]	56.74 ± 3.89%	184.9 ± 6.57 µM					>200 µM	>200 µM	>200 µM	>200 µM						> 200 µM
TF3-SGTQEEY-amide [TF3-PepNeg, PepNeg labeled at the N-terminus with tide fluor 3]	53.69 ± 2.94%	>200 µM					>200 µM	>200 µM	>200 µM	>200 µM						> 200 µM
WRRRYRRWRRRRRWRRRPRR-NH2 [vCPP2319]							>200 µM	>200 µM	>200 µM				20.6 ± 2.1 µM	5.02 ± 1.04 µM	1.22 ± 0.52 µM	
